In patent US9221810B2, “Substituted bicyclic aromatic compounds as S-nitrosoglutathione reductase inhibitors” (Nivalis Therapeutics, Inc., priority 2010, dated 2015):

Experiments:
[1] = tested on: acute dextran sodium sulfate (DSS)-induced IBD; assay: Acute prophylactic model of DSS-induced IBD in mice; format: in vivo, male C57Bl/6 mice
Source text: Acute and chronic models of dextran sodium sulfate (DSS)-induced IBD in mice were used to explore efficacy of GSNORi against this disease. Acute and chronic DSS-induced IBD are widely used and well characterized models that induce pathological changes in the colon similar to those observed in the human disease. In these models and in human disease, epithelial cells within the crypts of the colon are disrupted, leading to dysfunction of the epithelial barrier and the ensuing tissue inflammation, edema, and ulceration. GSNORi therapy may benefit IBD by restoring s-nitrosoglutathione (GSNO) levels, and thus prevent or reverse the epithelial barrier dysfunction. Experimental IBD was induced by administration of DSS in the drinking water of male C57Bl/6 mice (N=8 to 10 mice per group) for 6 consecutive days. GSNORi was dosed orally at doses of 0.1 to 10 mg/kg/day for 10 days starting two days prior to and continuing two days post DSS exposure. Two days post DSS exposure, the effect of GSNORi was assessed in a blinded fashion via endoscopy and histopathology using a five point scale ranging from a score=0 (normal tissue) through a score=4 (ulcerative tissue damage and marked pathological changes). Levels of circulating cytokines involved in inflammatory pathways were also assessed. The effect of GSNORi was compared to vehicle treated controls. The corticosteroid, prednisolone, was used as the positive control in this study and was administered daily at 3 mg/kg/day via oral dosing. Naïve mice (N=5) were also assessed as a normal tissue control.

[2] = tested on: cigarette smoke-induced COPD (subchronic 11 day); assay: Subchronic (11 day) cigarette smoke exposure COPD model; format: in vivo, female C57Bl/6 mice
Method: The efficacy of GSNOR inhibitors was assessed in a mouse model of chronic obstructive pulmonary disease (COPD) induced by short duration (4 days or 11 days) of exposure to cigarette smoke. Infiltration of inflammatory cells into the bronchoalveolar lavage fluid (BALF) and BALF levels of chemokines involved in inflammation and tissue turnover/repair were measured to assess the influences of GSNOR inhibitors on some of the early events associated with the initiation and progression of COPD.
Efficacy of GSNOR inhibitors against COPD was explored using acute (4 day) and subchronic (11 day) models of cigarette smoke-induced COPD in mice. […] In animal models, changes in lung pathology are only evident after extended (several months) duration of exposure to cigarette smoke, thus making chronic models prohibitive as effective screening tools. More recently, models exploring inflammatory responses after short duration (2 weeks or less) of smoke exposure in mice have been utilized as tools for screening efficacy and mechanisms of action of novel therapeutics against COPD. The key roles of inflammation in the initiation and progression of COPD, make these short duration models relevant for initial tests of efficacy of novel therapeutics.
Subchronic (11 Day) Smoke Exposure Model: Female C57Bl/6 mice (N=10 per group) were exposed to cigarette smoke generated from Marlboro 100 cigarettes without filters. Exposure times were 25 min. on study day 1, 35 min. on study day 2, and 45 min. on study days 3 to 11. GSNOR inhibitors were administered one hour prior to smoke exposure on each day. GSNOR inhibitors were dosed orally at 1 to 10 mg/kg/day for 11 days. The effects of GSNOR inhibitors were assessed by quantitating the number of total cells, and leukocytes differentials in the BALF via light microscopy at 24 h after the last exposure. The effect of GSNOR inhibitors were compared to vehicle treated controls and expressed as percent inhibition of the cigarette smoke induced increases in BALF cell numbers. Roflumilast was used as the positive control for the study and was dosed at 5 mg/kg/day. A group of naïve mice (N=10) was exposed to air and dosed with vehicle as a negative control for the study.

[3] = oral 10 mg/kg/day for 10 consecutive days, prophylactic

| Structure (SMILES) | circulating inflammatory cytokines ([1]; acute DSS model, oral dosing) | effects compared to prednisolone (positive control) ([1]; prednisolone 3 mg/kg/day oral) | inhibition of lymphocytes in BALF ([2]; oral 5 mg/kg/day) | inhibition of macrophages in BALF ([2]; oral 5 mg/kg/day) | inhibition of neutrophils in BALF ([2]; oral 5 mg/kg/day) | inhibition of total cells in BALF ([2]; oral 5 mg/kg/day) | inhibition of smoke-induced increase in eosinophils in BALF ([2]; oral 10 mg/kg/day for 11 days) | inhibition of smoke-induced increase in lymphocytes in BALF ([2]; oral 10 mg/kg/day for 11 days) | inhibition of smoke-induced increase in macrophages in BALF ([2]; oral 10 mg/kg/day for 11 days) | inhibition of smoke-induced increase in neutrophils in BALF ([2]; oral 10 mg/kg/day for 11 days) | inhibition of smoke-induced increase in total cells in BALF ([2]; oral 10 mg/kg/day for 11 days) | decrease of percent of mice with severe colon injury scores via endoscopy [1, 3] | decrease of percent of mice with severe colon injury scores via histopathology [1, 3] | dose response of effect ([2]; 1, 5, or 10 mg/kg/day) | effects compared to roflumilast (positive control) ([2]; subchronic 11 day model, roflumilast 5 mg/kg/day) |
| --- | --- | --- | --- | --- | --- | --- | --- | --- | --- | --- | --- | --- | --- | --- | --- |
| O=C(O)c1ccc(-c2ccc3cc(O)ccc3n2)cc1 [Example 3, 4-(6-hydroxyquinolin-2-yl)benzoic acid] | restored circulating inflammatory cytokines towards levels observed in untreated naïve mice | comparable to or greater than those observed for prednisolone | 46% | 23% | 29% | 22% | 70% | 49% | 24% | 41% | 25% |  |  |  |  |
| O=C(O)c1ccc(-c2ccc3cc(O)ccc3n2)c(Cl)c1 [Example 8, 3-chloro-4-(6-hydroxyquinolin-2-yl)benzoic acid] |  |  |  |  |  |  |  |  |  |  |  | 44 % of vehicle control | 26 % of vehicle control | no dose response of effect | comparable to those of roflumilast |
